Assay results as given in patent publication US20090246172A1, “COMPOSITIONS COMPRISING EPOTHILONES AND THEIR USE FOR THE TREATMENT OF CARCINOID SYNDROME” (priority 2001, published 2009).

System: carcinoid syndrome and/or at least one neuroendocrine tumor
Assay: treatment of a human patient with epothilone B (Example 1)
Assay type: in vivo
Description: A human patient experiencing 3 loose bowel movements each day, frequent nausea and anorexia presented a plasma serotonin level of 361 ng/ml and an octreotide scan showing foci of abnormal activity in the pelvis, liver, upper chest and neck. They received 2.5 mg/m^2 of epothilone B weekly every 3 of 4 weeks.

**Q.** With `C/C(=C\c1csc(C)n1)[C@@H]1C[C@@H]2O[C@]2(C)CCC[C@H](C)[C@H](O)[C@@H](C)C(=O)C(C)(C)[C@@H](O)CC(=O)O1` [epothilone B] as the compound, how does the octreotide scan (2.5 mg/m^2 weekly every 3 of 4 weeks, after 6 doses plus further about two months) read?
**A.** Its octreotide scan is “no evidence of disease”.

**Q.** And the octreotide scan (2.5 mg/m^2 weekly every 3 of 4 weeks, after 6 doses, before treatment foci in pelvis, liver, upper chest and neck)?
**A.** Its octreotide scan is “minimal focus of activity in the pelvis alone”.

**Q.** What about the “tumor burden of the patient” value (conclusion drawn from the observations in Example 1 ('make it likely')) of the same compound?
**A.** Its value is “significantly decreased”.

**Q.** What about the plasma serotonin level (patient, 2.5 mg/m^2 weekly every 3 of 4 weeks, 6 doses plus further about two months, level before treatment 361 ng/ml, within normal limits) of the same compound?
**A.** The plasma serotonin level was 62 ng/mL.
